Measured values as given in patent publication US6162417A, “Pyrrolo isoquinolines” (Emory University, priority 1998, dated 2000).
Where two headings read alike, the source gives them in different places.

Experiments:
[1] = target: T1, human serotonin transporter (Homo sapiens, UniProt P31645); assay: Binding site inhibition in HEK-293 cell membranes transfected with human serotonin transporter ([3H]Citalopram)
T1 construct: expressed in transfected cells; host or cells: HEK-293, stably transfected
T1 sequence (P31645 whole entry): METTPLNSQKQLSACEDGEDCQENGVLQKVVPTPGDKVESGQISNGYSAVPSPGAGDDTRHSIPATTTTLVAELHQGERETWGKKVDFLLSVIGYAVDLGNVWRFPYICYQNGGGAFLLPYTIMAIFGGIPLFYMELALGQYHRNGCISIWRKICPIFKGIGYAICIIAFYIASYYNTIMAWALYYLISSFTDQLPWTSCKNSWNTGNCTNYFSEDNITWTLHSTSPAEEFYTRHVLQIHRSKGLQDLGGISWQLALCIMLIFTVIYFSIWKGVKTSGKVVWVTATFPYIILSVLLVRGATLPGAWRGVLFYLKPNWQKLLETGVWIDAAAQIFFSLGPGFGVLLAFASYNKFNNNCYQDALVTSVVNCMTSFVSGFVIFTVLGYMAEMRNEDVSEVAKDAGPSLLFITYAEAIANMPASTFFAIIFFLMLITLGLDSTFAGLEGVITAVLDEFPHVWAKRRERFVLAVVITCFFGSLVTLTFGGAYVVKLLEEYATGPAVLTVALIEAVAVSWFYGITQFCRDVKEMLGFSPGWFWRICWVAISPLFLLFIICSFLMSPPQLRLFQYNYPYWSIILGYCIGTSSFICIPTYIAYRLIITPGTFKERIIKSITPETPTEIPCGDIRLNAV

[2] = Tissue distribution of radioactivity after intravenous administration (Table 6); type: in vivo, Sprague Dawley rats; details: rat, i.v., mean (range) of 4 rats; for tissue uptake at 0.5 h: 30 min; for tissue uptake at 1 h: 60 min; for tissue uptake at 2 h: 120 min
Excerpt: Distribution of Radioactivity in Tissues of Unfasted Male
Sprague Dawley Rats Following Intravenous Administration
of (+)-Trans-1,2,3,5,6,10b-hexahydro-6-
[4-iodophenyl]-pyrrolo[2,1-a]isoquinoline
Mean % Injected Dose/Gram (Range of 4 rats +/SD)

[3] = Regional brain uptake with and without preblocking by paroxetine or GBR 12909 (Table 5); type: in vivo, Sprague Dawley rats; details: rat, iv, 60 min
Experimental: (§1) Regional Uptake (% dose/gram) and Ratios of
(§2) 95% ee(6S, 10bR)-I-McN in Sprague Dawley Rats
(§3) (n = 4) at 60 Min Following Preblocking
(§4) (5 mg/kg i.v. 15 min prior to radioligand)

[4] = test system: serotonin transporter; dopamine transporter; assay: as above; type: in vivo, Sprague Dawley rats; details: rat, 60 min
Experimental: as §1, §2, §3, §4

[5] = Regional brain distribution of radioactivity after intravenous administration (Table 4); type: in vivo, Sprague-Dawley rats; details: iv, rat, i.v., mean of three rats; for tissue uptake at 0.5 h: 30 min; for tissue uptake at 1 h: 60 min; for tissue uptake at 2 h: 120 min
Excerpt: (§5) Regional Distribution of Radioactivity in Tissues of Unfasted
(§6) Male Sprague-Dawley Rats Following Intravenous Administration
(§7) iodophenyl)pyrrolo[2,1-a]isoquinoline
(§8) The cerebellum contains a very low density of serotonin transporter sites and is taken as "background" in this analysis of regional uptake.

serotonin transporter = assay: as above; type: in vivo, Sprague-Dawley rats; details: rat, i.v.
Excerpt: as §5, §6, §7, §8

[6] = HEK-293 cells, human serotonin transporter, vs. [3H]Citalopram, read-out: 5-HT Ki
[7] = blood, read-out: Blood, mean % injected dose/gram
[8] = brain, read-out: Brain, mean % injected dose/gram
[9] = heart, read-out: Heart, mean % injected dose/gram
[10] = kidney, read-out: Kidney, mean % injected dose/gram
[11] = liver, read-out: Liver, mean % injected dose/gram
[12] = lung, read-out: Lung, mean % injected dose/gram
[13] = muscle, read-out: Muscle, mean % injected dose/gram
[14] = spleen, read-out: Spleen, mean % injected dose/gram
[15] = thyroid, read-out: Thyroid, mean % injected dose/gram
[16] = dopamine blocker GBR 12909 5 mg/kg i.v. 15 min prior
[17] = serotonin blocker paroxetine 5 mg/kg i.v. 15 min prior
[18] = cerebellum, read-out: Cerebellum, mean % injected dose/gram
[19] = cortex, read-out: Cortex, mean % injected dose/gram
[20] = hypothalamus, read-out: Hypothalamus, mean % injected dose/gram
[21] = prefrontal cortex, read-out: Prefrontal Cortex, mean % injected dose/gram
[22] = striatum, read-out: Striatum, mean % injected dose/gram

`FCCSc1ccc([C@@H]2CN3CCC[C@@H]3c3ccccc32)cc1` (relative stereo) [racemic SCH2 CH2 F] gave a Ki [1, 6] of 5.7 nM.
Compound `Ic1ccc([C@@H]2CN3CCC[C@@H]3c3ccccc32)cc1` [(+)-Trans-1,2,3,5,6,10b-hexahydro-6-[4-iodophenyl]-pyrrolo[2,1-a]isoquinoline] has a tissue uptake at 0.5 h [2, 7] of 0.24 %ID/g, a tissue uptake at 1 h [2, 7] of 0.3 %ID/g and a tissue uptake at 2 h [2, 7] of 0.21 %ID/g. The tissue uptake at 0.5 h [2, 8] was 0.85 %ID/g, the tissue uptake at 1 h [2, 8] was 0.7 %ID/g and the tissue uptake at 2 h [2, 8] was 0.43 %ID/g. For the same compound, the tissue uptake at 0.5 h [2, 9] was 0.55 %ID/g, the tissue uptake at 1 h [2, 9] was 0.51 %ID/g and the tissue uptake at 2 h [2, 9] was 0.47 %ID/g. It also gave a tissue uptake at 0.5 h [2, 10] of 0.84 %ID/g, a tissue uptake at 1 h [2, 10] of 0.66 %ID/g and a tissue uptake at 2 h [2, 10] of 0.79 %ID/g. The tissue uptake at 0.5 h [2, 11] was 1.62 %ID/g, the tissue uptake at 1 h [2, 11] was 1.26 %ID/g and the tissue uptake at 2 h [2, 11] was 1.18 %ID/g. The tissue uptake at 0.5 h [2, 12] was 1.53 %ID/g, the tissue uptake at 1 h [2, 12] was 1.28 %ID/g and the tissue uptake at 2 h [2, 12] was 0.92 %ID/g. The tissue uptake at 0.5 h [2, 13] was 0.27 %ID/g, the tissue uptake at 1 h [2, 13] was 0.26 %ID/g and the tissue uptake at 2 h [2, 13] was 0.27 %ID/g. For the same compound, the tissue uptake at 0.5 h [2, 14] was 1 %ID/g, the tissue uptake at 1 h [2, 14] was 0.74 %ID/g and the tissue uptake at 2 h [2, 14] was 0.54 %ID/g. The tissue uptake at 0.5 h [2, 15] was 1.07 %ID/g, the tissue uptake at 1 h [2, 15] was 1.5 %ID/g and the tissue uptake at 2 h [2, 15] was 1.04 %ID/g.
Work on `[123I]c1ccc([C@@H]2CN3CCC[C@@H]3c3ccccc32)cc1` [95% ee(6S, 10bR)-I-McN, [^123 I](+)-Trans-1,2,3,5,6,10b-hexaydro-6-[4-iodophenyl]-pyrrolo[2,1-a]isoquinoline] yielded a tissue uptake at 1 h ([3]; cerebellum, 5 mg/kg, dopamine blocker GBR 12909 5 mg/kg i.v. 15 min prior, read-out: Cerebellum uptake) of 0.55 %ID/g, a tissue uptake at 1 h ([3]; cerebellum, no blocker, read-out: Cerebellum uptake) of 0.46 %ID/g and a tissue uptake at 1 h ([3]; cerebellum, serotonin blocker paroxetine 5 mg/kg i.v. 15 min prior, read-out: Cerebellum uptake) of 0.43 %ID/g. It also gave a tissue uptake at 1 h ([3]; cortex, 5 mg/kg, dopamine blocker GBR 12909 5 mg/kg i.v. 15 min prior, read-out: Cortex uptake) of 2.1 %ID/g, a tissue uptake at 1 h ([3]; cortex, no blocker, read-out: Cortex uptake) of 1.88 %ID/g and a tissue uptake at 1 h ([3]; cortex, serotonin blocker paroxetine 5 mg/kg i.v. 15 min prior, read-out: Cortex uptake) of 1.8 %ID/g. For the same compound, the tissue uptake at 1 h ([3]; hypothalamus, 5 mg/kg, dopamine blocker GBR 12909 5 mg/kg i.v. 15 min prior, read-out: Hypothalamus uptake) was 3.62 %ID/g, the tissue uptake at 1 h ([3]; hypothalamus, no blocker, read-out: Hypothalamus uptake) was 3.75 %ID/g and the tissue uptake at 1 h ([3]; hypothalamus, serotonin blocker paroxetine 5 mg/kg i.v. 15 min prior, read-out: Hypothalamus uptake) was 2 %ID/g. It also gave a tissue uptake at 1 h ([3]; prefrontal cortex, 5 mg/kg, dopamine blocker GBR 12909 5 mg/kg i.v. 15 min prior, read-out: Prefrontal Cortex uptake) of 2.8 %ID/g, a tissue uptake at 1 h ([3]; prefrontal cortex, no blocker, read-out: Prefrontal Cortex uptake) of 2.3 %ID/g and a tissue uptake at 1 h ([3]; prefrontal cortex, serotonin blocker paroxetine 5 mg/kg i.v. 15 min prior, read-out: Prefrontal Cortex uptake) of 1.98 %ID/g. It also gave a tissue uptake at 1 h ([3]; striatum, 5 mg/kg, dopamine blocker GBR 12909 5 mg/kg i.v. 15 min prior, read-out: Striatum uptake) of 1.36 %ID/g, a tissue uptake at 1 h ([3]; striatum, no blocker, read-out: Striatum uptake) of 2.21 %ID/g and a tissue uptake at 1 h ([3]; striatum, serotonin blocker paroxetine 5 mg/kg i.v. 15 min prior, read-out: Striatum uptake) of 1.39 %ID/g. The Cortex/Cereb ratio [4, 16] was 3.82, the Hypthal/Cereb ratio [4, 16] was 6.6 and the PrefCx/Cereb ratio [4, 16] was 5.1. For the same compound, the Striatum/Cereb ratio [4, 16] was 2.47, the Cortex/Cereb ratio ([4]; no blocker) was 4.08 and the Hypthal/Cereb ratio ([4]; no blocker) was 8.15. For the same compound, the PrefCx/Cereb ratio ([4]; no blocker) was 5.0, the Striatum/Cereb ratio ([4]; no blocker) was 4.8 and the Cortex/Cereb ratio [4, 17] was 4.18. The Hypthal/Cereb ratio [4, 17] was 4.65, the PrefCx/Cereb ratio [4, 17] was 4.6 and the Striatum/Cereb ratio [4, 17] was 3.2.
`FCCc1ccc([C@@H]2CN3CCC[C@@H]3c3ccccc32)cc1` (relative stereo) [racemic CH2 CH2 F] showed a Ki [1, 6] of 13 nM.
`FCCSc1ccc([C@@H]2CN3CCC[C@@H]3c3ccccc32)cc1` (single isomer, unassigned) [95% ee (-) SCH2 CH2 F] showed a Ki [1, 6] of 6.4 nM.
`[123I]c1ccc([C@@H]2CN3CCC[C@@H]3c3ccccc32)cc1` [(+)-[^123 I]6, (+)-(6S, 10bR)-1,2,3,5,6,10b-hexahydro-6-(4'-[^123 I]iodophenyl)pyrrolo[2,1-a]-isoquinoline] gave a tissue uptake at 5 min [5, 18] of 1.23 %ID/g, a tissue uptake at 0.5 h [5, 18] of 0.78 %ID/g and a tissue uptake at 1 h [5, 18] of 0.58 %ID/g. For the same compound, the tissue uptake at 2 h [5, 18] was 0.39 %ID/g, the tissue uptake at 5 min [5, 19] was 2.06 %ID/g and the tissue uptake at 0.5 h [5, 19] was 1.6 %ID/g. For the same compound, the tissue uptake at 1 h [5, 19] was 0.89 %ID/g, the tissue uptake at 2 h [5, 19] was 0.74 %ID/g and the tissue uptake at 5 min [5, 20] was 3.69 %ID/g. For the same compound, the tissue uptake at 0.5 h [5, 20] was 3.59 %ID/g, the tissue uptake at 1 h [5, 20] was 3.73 %ID/g and the tissue uptake at 2 h [5, 20] was 2.85 %ID/g. It also gave a tissue uptake at 5 min [5, 21] of 5 %ID/g, a tissue uptake at 0.5 h [5, 21] of 3.72 %ID/g and a tissue uptake at 1 h [5, 21] of 3.13 %ID/g. It also gave a tissue uptake at 2 h [5, 21] of 2.25 %ID/g, a tissue uptake at 5 min [5, 22] of 3.43 %ID/g and a tissue uptake at 0.5 h [5, 22] of 2.46 %ID/g. For the same compound, the tissue uptake at 1 h [5, 22] was 2.28 %ID/g, the tissue uptake at 2 h [5, 22] was 2.06 %ID/g and the “accumulation in brain regions” value (serotonin transporter) was “greatest accumulation in brain regions rich in serotoninergic neurons”. The Cortex/Cereb ratio (serotonin transporter; 5 min) was 1.7, the Hypothal/Cereb ratio (serotonin transporter; 5 min) was 3.0 and the PrefCx/Cereb ratio (serotonin transporter; 5 min) was 4.1. The Striatum/Cereb ratio (serotonin transporter; 5 min) was 2.9, the Cortex/Cereb ratio (serotonin transporter; 30 min) was 2.1 and the Hypothal/Cereb ratio (serotonin transporter; 30 min) was 4.6. It also gave a PrefCx/Cereb ratio (serotonin transporter; 30 min) of 4.8, a Striatum/Cereb ratio (serotonin transporter; 30 min) of 3.2 and a Cortex/Cereb ratio (serotonin transporter; 60 min) of 1.6. For the same compound, the Hypothal/Cereb ratio (serotonin transporter; 60 min) was 6.5, the PrefCx/Cereb ratio (serotonin transporter; 60 min) was 5.4 and the Striatum/Cereb ratio (serotonin transporter; 60 min) was 4.0. It also gave a Cortex/Cereb ratio (serotonin transporter; 120 min) of 1.9, a Hypothal/Cereb ratio (serotonin transporter; 120 min) of 7.3 and a PrefCx/Cereb ratio (serotonin transporter; 120 min) of 5.8. The Striatum/Cereb ratio (serotonin transporter; 120 min) was 5.3.
Compound `C=Cc1ccc([C@@H]2CN3CCC[C@@H]3c3ccccc32)cc1` (relative stereo) [racemic CH=CH2] has a Ki [1] of 3.7 nM.
`FCCSc1ccc([C@@H]2CN3CCC[C@@H]3c3ccccc32)cc1` (single isomer, unassigned) [95% ee (+) SCH2 CH2 F] showed a Ki [1, 6] of 2.6 nM.
